Assay results from article PMC10179972, “New Hybrid Tetrahydropyrrolo[3,2,1-ij]quinolin-1-ylidene-2-thioxothiazolidin-4-ones as New Inhibitors of Factor Xa and Factor XIa: Design, Synthesis, and In Silico and Experimental Evaluation” (Molecules, 2023).
Like-named read-outs stand apart in the source and are kept apart here.

What was measured:
factor Xa [1] = molecular target: T1, factor Xa (Homo sapiens, UniProt P00742); details: cited from earlier work
T1 construct: followed by the addition of factor Xa (final concentration, 2.5 nmol·L^–1)
T1 sequence (P00742 235-488 limits assumed): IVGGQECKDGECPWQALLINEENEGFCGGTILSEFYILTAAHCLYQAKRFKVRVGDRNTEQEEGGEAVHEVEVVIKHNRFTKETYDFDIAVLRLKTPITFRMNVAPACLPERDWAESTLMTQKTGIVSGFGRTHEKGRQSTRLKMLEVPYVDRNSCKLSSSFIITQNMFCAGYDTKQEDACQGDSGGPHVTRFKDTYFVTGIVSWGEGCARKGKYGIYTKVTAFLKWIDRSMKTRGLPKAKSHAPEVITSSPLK
T1 sequence (P00742 41-179 partner limits assumed): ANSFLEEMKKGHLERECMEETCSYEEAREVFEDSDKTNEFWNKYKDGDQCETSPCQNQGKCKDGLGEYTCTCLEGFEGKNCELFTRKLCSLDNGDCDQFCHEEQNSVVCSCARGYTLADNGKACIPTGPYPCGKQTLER

factor XIa [2] = molecular target: T2, factor XIa (Homo sapiens, UniProt P03951); test: Inhibition of factor XIa, kinetics of hydrolysis of chromogenic substrate S2366; type: biochemical; details: for inhibition at 30 µM: 30 μM compound, factor XIa 0.8 nmol/L, S2366 200 μmol/L, pH 8.0, read-out: Percent Inhibition at 30 μM, XIa; for IC50: substrate S2366, buffer solution
T2 sequence (P03951 388-625 limits assumed): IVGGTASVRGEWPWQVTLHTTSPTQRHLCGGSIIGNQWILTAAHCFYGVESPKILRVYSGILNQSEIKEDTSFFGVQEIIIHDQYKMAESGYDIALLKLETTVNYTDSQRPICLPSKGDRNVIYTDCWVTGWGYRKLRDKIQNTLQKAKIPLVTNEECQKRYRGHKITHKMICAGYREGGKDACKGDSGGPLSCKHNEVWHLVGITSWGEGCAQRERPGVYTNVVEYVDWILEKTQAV
T2 sequence (P03951 19-387 partner limits assumed): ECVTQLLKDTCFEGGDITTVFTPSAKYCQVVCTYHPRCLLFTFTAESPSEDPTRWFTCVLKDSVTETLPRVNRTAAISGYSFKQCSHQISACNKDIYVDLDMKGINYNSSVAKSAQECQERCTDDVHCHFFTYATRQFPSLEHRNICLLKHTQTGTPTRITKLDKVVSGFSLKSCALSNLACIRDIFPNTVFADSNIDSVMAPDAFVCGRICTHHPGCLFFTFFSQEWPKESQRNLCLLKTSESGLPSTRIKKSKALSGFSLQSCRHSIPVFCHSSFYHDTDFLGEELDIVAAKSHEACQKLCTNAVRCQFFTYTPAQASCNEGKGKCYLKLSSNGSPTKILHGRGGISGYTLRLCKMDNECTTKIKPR
Experimental: Compounds 12, 14 and 16 were evaluated for their anticoagulant activity against factors Xa and Xia, and the results are presented in Table 1. For the best Xa and XIa inhibitors, additional measurements were performed to determine the IC50 values. We measured the kinetics of the hydrolysis of the specific substrates S2765 or S2366 by factors Xa and XIa, respectively, in the buffer solution and in the presence of various concentrations of compounds.
(§1) A specific low-molecular-weight chromogenic substrate, S2765 (Z-D-Arg-Gly-Arg-pNA·2HCl), was used in the case of factor Xa, while the substrate S2366 (pyroGlu-Pro-ArgpNA·HCl) (both substrates from Chromogenix, USA) was used for factor XIa.
(§2) A buffer containing 140 mM NaCl, 20 mM HEPES, and 0.1% PEG 6000 (pH 8.0) was placed in the wells of a 96-well plate, followed by the addition of factor Xa (final concentration, 2.5 nmol·L^–1) or XIa (final concentration 0.8 nmol·L^–1), the substrate S2765 (final concentration, 200 μmol·L^–1) or S2366 (final concentration, 200 μmol·L^–1), and a solution of the test compound in DMSO (final concentration, 30 μmol·L^–1; the DMSO content in the well was no more than 2%). The kinetics of the formation of p-nitroaniline were measured using a THERMOmax Microplate Reader (Molecular Devices Corporation, USA) using the absorption of light with a wavelength of 405 nm. The initial rate of substrate degradation was determined from the initial slope of the 4-nitroaniline-formation curve. The rate of substrate degradation by the enzyme in the presence of the inhibitor was expressed as a percentage relative to the rate of substrate degradation in the absence of the inhibitor. The data obtained were processed using GraphPad Prism and OriginPro 8 software.

factor XIa [3] = molecular target: T2, factor XIa; parameters: method as in earlier work; details: known actives used in validation of docking protocol, ref [1]-[6] of Table S2, column Ligand ID, cited from earlier work
factor Xa [4] = molecular target: T1, factor Xa; test: Inhibition of factor Xa, kinetics of hydrolysis of chromogenic substrate S2765; type: biochemical; details: for inhibition at 30 µM: 30 μM compound, factor Xa 2.5 nmol/L, S2765 200 μmol/L, pH 8.0, read-out: Percent Inhibition at 30 μM, Xa; for IC50: substrate S2765, buffer solution
Experimental: We measured the kinetics of the hydrolysis of the specific substrates S2765 or S2366 by factors Xa and XIa, respectively, in the buffer solution and in the presence of various concentrations of compounds.
as §1
as §2, with “The kinetics of the formation of p-nitroaniline were measured using a THERMOmax Microplate Reader (Molecular Devices Corporation, USA) using the absorption of light with a wavelength of 405 nm.” left out

Compound | inhibition at 30 µM (factor XIa [2]) | inhibition at 30 µM (factor Xa [4]) | other results
CS(=O)(=O)c1ccccc1-c1ccc(N2CC[C@H](NS(=O)(=O)CCc3ccc(Cl)s3)C2=O)c(F)c1 [GSV] | – | – | IC50 (factor Xa [1]; known actives of crystal complexes used in validation of docking protocol, no reference given, read-out: IC50, factor Xa (Table S2)): 0.2 nM
O=C(NC[C@H]1CN(c2ccc(N3CCOCC3=O)cc2)C(=O)O1)c1ccc(Cl)s1 [Rivaroxaban, reference compound] | 8% | – | factor-Xa inhibitor potency in words (factor Xa [1]): subnanomolar
CC(C)CC(=O)Nc1cc(-c2ccc(C(N)=O)cc2C(=O)O)cc([C@@H]2C[C@](C)(c3ccccc3)c3cc(C(=N)N)ccc3N2)c1 [BMS-654457] | – | – | Ki (factor XIa [3]; read-out: Ki, factor XIa (Table S2, values in brackets)): 0.2 nM
Cc1cc(=O)[nH]c2ccc(Cl)cc12 [MVN] | – | – | IC50 (factor XIa [3]): > 1.1 nM
CC1(c2ccccc2)CC(C)(C)N2C(=O)/C(=C3\SC(=S)NC3=O)c3cc(F)cc1c32 (centres unmarked) [12g, (Z)-5-(8-Fluoro-4,4,6-trimethyl-2-oxo-6-phenyl-5,6-dihydro-4H-pyrrolo[3,2,1-ij]quinolin-1(2H)-ylidene)-2-thioxothiazolidin-4-one] | 98% | 99% | IC50 (factor Xa [4]): 3700 ± 30 nM; IC50 (factor XIa [2]): 5030 ± 180 nM
Cc1cc2c3c(c1)C(C)CC(C)(C)N3C(=O)/C2=C1\NC(=S)NC1=O (centres unmarked) [16b, (Z)-4,4,6,8-Tetramethyl-1-(5-oxo-2-thioxoimidazolidin-4-ylidene)-5,6-dihydro-4H-pyrrolo[3,2,1-ij]quinolin-2(1H)-one] | 5% | 31% | –
Cc1cc2c3c(c1)C(C)(c1ccc(Cl)cc1)CC(C)(C)N3C(=O)/C2=C1\NC(=S)NC1=O (centres unmarked) [16e, (Z)-6-(4-Chlorophenyl)-4,4,6,8-tetramethyl-1-(5-oxo-2-thioxoimidazolidin-4-ylidene)-5,6-dihydro-4H-pyrrolo[3,2,1-ij]quinolin-2(1H)-one] | 86% | 59% | –
CC1(c2ccc(Cl)cc2)CC(C)(C)N2C(=O)/C(=C3\SC(=S)NC3=O)c3cc(I)cc1c32 (centres unmarked) [12l, (Z)-5-(6-(4-Chlorophenyl)-8-iodo-4,4,6-trimethyl-2-oxo-5,6-dihydro-4H-pyrrolo[3,2,1-ij]quinolin-1(2H)-ylidene)-2-thioxothiazolidin-4-one] | 95% | 78% | IC50 (factor Xa [4]): 2870 ± 210 nM; IC50 (factor XIa [2]): 4300 ± 60 nM
